We go through 1 molecule from patent US6589549B2, “Bioactive agent delivering system comprised of microparticles within a biodegradable to improve release profiles” (Macromed, Incorporated, priority 2000, dated 2003).

The conditions of this series: in the presence of the block copolymer.

On to `CC(=O)O[C@H]1C(=O)[C@@]2(C)[C@H]([C@H](OC(=O)c3ccccc3)[C@]3(O)C[C@H](OC(=O)[C@H](O)[C@@H](NC(=O)c4ccccc4)c4ccccc4)C(C)=C1C3(C)C)[C@]1(OC(C)=O)CO[C@@H]1C[C@@H]2O` [paclitaxel], for which the “chemical stability in the aqueous polymer composition relative to aqueous solutions with organic co-solvents” value was “substantially stabilized”.
